Measured values taken from ChEMBL document CHEMBL1255168, “1-Aryl-3-(1-acylpiperidin-4-yl)urea inhibitors of human and murine soluble epoxide hydrolase: structure-activity relationships, pharmacokinetics, and reduction of inflammatory pain” (J Med Chem, 2010).

Key:
[1] = molecular target: T1, Bifunctional epoxide hydrolase 2 (Homo sapiens, UniProt P34913)
T1 sequence (P34913 whole entry): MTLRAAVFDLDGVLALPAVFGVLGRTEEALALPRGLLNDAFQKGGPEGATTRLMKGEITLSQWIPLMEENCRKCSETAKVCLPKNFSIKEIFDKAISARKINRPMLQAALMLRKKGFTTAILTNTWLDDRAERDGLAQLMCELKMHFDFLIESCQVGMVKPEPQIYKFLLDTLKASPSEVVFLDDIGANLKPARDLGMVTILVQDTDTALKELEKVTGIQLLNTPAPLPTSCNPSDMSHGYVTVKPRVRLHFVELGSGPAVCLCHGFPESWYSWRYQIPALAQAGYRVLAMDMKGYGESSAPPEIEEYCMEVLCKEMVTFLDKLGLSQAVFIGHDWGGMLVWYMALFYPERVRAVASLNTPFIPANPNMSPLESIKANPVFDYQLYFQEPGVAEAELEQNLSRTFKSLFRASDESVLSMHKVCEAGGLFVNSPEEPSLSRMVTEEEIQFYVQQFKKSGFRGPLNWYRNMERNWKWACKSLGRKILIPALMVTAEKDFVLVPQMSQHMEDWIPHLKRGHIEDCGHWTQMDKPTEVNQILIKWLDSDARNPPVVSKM
Description: Inhibition of human recombinant soluble epoxide hydrolase by fluorescence assay

[2] = molecular target: T2, Bifunctional epoxide hydrolase 2 (Mus musculus, UniProt P34914)
T2 sequence (P34914 whole entry): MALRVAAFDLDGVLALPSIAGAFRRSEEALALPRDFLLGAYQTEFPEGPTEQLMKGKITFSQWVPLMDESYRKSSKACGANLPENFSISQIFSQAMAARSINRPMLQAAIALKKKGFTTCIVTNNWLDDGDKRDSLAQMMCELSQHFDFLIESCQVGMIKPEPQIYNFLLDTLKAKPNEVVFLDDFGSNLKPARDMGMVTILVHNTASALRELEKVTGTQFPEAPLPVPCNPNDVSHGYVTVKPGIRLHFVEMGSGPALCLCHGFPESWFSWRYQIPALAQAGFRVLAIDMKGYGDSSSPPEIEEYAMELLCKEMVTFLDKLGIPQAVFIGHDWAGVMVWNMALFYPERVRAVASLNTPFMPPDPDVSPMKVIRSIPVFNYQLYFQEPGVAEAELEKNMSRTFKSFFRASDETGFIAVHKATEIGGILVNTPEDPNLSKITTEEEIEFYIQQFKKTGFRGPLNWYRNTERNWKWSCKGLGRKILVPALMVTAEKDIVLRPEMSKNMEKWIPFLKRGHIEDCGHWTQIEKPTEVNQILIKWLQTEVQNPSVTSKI
Description: Inhibition of mouse recombinant soluble epoxide hydrolase by fluorescence assay

SMILES | IC50 [1] [µM] | IC50 [2] [µM]
O=C(Nc1ccc(OC(F)(F)F)cc1)NC1CCN(C(=O)CN2CCN(Cc3ccccc3)CC2)CC1 | 0.0015 | 0.018
CCC(=O)N1CCC(NC(=O)Nc2ccc3c(c2)OCO3)CC1 | 0.061 | 0.1
CCC(=O)N1CCC(NC(=O)Nc2cc(OC)c(OC)c(OC)c2)CC1 | > 5 | 
CCC(=O)N1CCC(NC(=O)Nc2ccc(C(=O)OC)cc2)CC1 | 0.14 | 0.064
